Entries after “also recorded” stand apart in the source; their conditions may differ.
What was measured:
serum albumin = serum albumin (Homo sapiens, UniProt P02768); details: binding with serum albumin in solution; cited from earlier work
[1] = in 20 minutes post-intravenous injection; cited from earlier work
[2] = Photostability under continuous laser excitation in PBS and bovine plasma; format: physicochemical
[3] = Optical properties (absorption, emission, quantum yield, solution) in PBS; format: physicochemical; details: PBS (50 μM)
HPV-positive mEER tumor = assay: In vivo NIR-II tumor imaging, mEER tumor model; design: species or system mouse; details: mEER tumor bearing mice, i.v., 5 mg/kg or similar dose
Source text: (§1) Applicants hypothesized that intravenous administration of NIR-II dyes such as XW-03-66, has the potential to accumulate in these tumors via the EPR effect, thus enabling NIR-II image-guided intraoperative resection with improved adequate margin delineation. To test this hypothesis, two different syngeneic murine models of head and neck squamous cell carcinoma were used: (1) the human papillomavirus (HPV)-positive mEER tumor model, featuring murine pharyngeal epithelial cells transformed with HPV16 E6 and E7 oncogenes and H-ras, and (2) HPV-ve, the carcinogen induced Mouse Oral Cancer 2 (MOC2) tumor model.
(§2) Test mice (n=4 for each model) were first subjected to preoperative MRI scans to establish presence of the tumor. Following MRI confirmation, tumor-bearing mice were administered XW-03-66 (dose=5 mg/kg) by tail vein injection. For comparison, a similar number of mice with MRI-confirmed tumors were injected with clinically approved ICG at a similar dose. To monitor dynamics of tumor uptake, NIR-II images were collected at different time intervals over a period of seven days.

[4] = test system: Mouse Oral Cancer 2 (MOC2) tumor; assay: In vivo NIR-II tumor imaging, MOC2 tumor model
Source text: as §1, §2

[5] = in PBS; cited from earlier work

Chain of serum albumin (P02768 25-609): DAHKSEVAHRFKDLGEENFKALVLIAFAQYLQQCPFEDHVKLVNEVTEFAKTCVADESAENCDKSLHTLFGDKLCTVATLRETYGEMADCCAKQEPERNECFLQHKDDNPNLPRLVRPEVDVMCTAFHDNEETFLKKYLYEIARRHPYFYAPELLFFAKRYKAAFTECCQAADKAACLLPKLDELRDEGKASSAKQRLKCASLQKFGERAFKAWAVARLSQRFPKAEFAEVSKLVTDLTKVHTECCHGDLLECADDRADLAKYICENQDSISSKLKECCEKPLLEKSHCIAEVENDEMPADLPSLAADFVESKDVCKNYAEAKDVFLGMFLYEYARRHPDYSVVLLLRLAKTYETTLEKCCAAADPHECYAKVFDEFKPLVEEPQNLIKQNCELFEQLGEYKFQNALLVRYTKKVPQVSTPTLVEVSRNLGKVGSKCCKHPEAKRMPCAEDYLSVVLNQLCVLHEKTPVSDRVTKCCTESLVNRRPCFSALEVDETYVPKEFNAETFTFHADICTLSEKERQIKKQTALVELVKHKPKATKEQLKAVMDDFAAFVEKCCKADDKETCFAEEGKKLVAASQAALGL

Structure (SMILES): CC1(C)C(/C=C/C=C/C=C/C=C2\N(CCCCS(=O)(=O)O)c3ccc4ccccc4c3C2(C)C)=[N+](CCCCS(=O)(=O)[O-])c2ccc3ccccc3c21 [ICG, indocyanine green]
- factor of fluorescence increase compared to solution in PBS (serum albumin): 23
- fraction removed from circulation via the liver [1]: 97%
- time of drop in fluorescence to baseline [2]: ≤ 30 min
- dissolution in PBS [3]: dissolve in PBS resulting in clear solutions
- NIR-II tumor signal (HPV-positive mEER tumor): no signal uptake in either tumor model; also recorded: faint tumor signals at 1-2 h, and no apparent signal thereafter
- NIR-II tumor signal ([4]; MOC2 tumor bearing mice, i.v., 5 mg/kg or similar dose, 5 mg/kg): no signal uptake in either tumor model; also recorded: faint tumor signal at 1-2 h, and no apparent signal thereafter
- liver signal ([4]; tumor-bearing mice, model not distinguished): observed in the liver in images captured within the first four hours, but completely disappeared thereafter
- NIR-II QY [5]: 0.042%

Source: patent publication US20240165273A1, “SELF-ASSEMBLING MOLECULES ENABLING HIGH PERFORMANCE IN VIVO IMAGING IN THE SECOND NEAR INFRARED (NIR-II) WINDOW” (Baylor College of Medicine, priority 2022, published 2024)
